Laboratory results reported in patent US11878972B2, “Treatment of neurological disorders” (TORQUR AG, priority 2016, dated 2024).
“Also recorded” adds a separate entry of the source.

How the values were obtained:
[1] = system: S6 phosphorylation (S235/236); experiment: mTOR signaling in brain samples of pilocarpine pre-treated and naïve mice (western blot); type: in vivo, mouse; conditions: for decrease of S6 phosphorylation (S235/236) versus control: brain, 3 hours after single oral dose: Cpd. 3 40 mg/kg, Cpd. 8 25 mg/kg, everolimus 5 mg/kg
Method: A ramping-up dosing protocol was used which has the advantage that pilocarpine can be individually applied according to the susceptibility of each mouse. Pilocarpine (Sigma-Aldrich, Germany) was administered to female NMRI mice intraperitoneally at a dose of 100 mg/kg (Pilo-SE group). […] To reduce peripheral side effects of pilocarpine, methylscopolamine (Sigma-Aldrich, Germany) was administered 30 minutes prior to the first injection of pilocarpine. Animals were continuously monitored and duration of convulsive SE was registered [referred to Racine's scale. SE onset was defined as continuous ongoing seizure activity following occurrence of one or two generalized tonic-clonic seizures [stage 4 or 5 on the Racine scale]. SE was characterized by head nodding in an upright (sitting) body position, Straub tail, and slight to moderate convulsions of forelimbs, sometimes interrupted by further generalized tonic-clonic seizures. In order to reduce mortality, SE was terminated by diazepam (10 mg/kg i.p.; diazepam-ratiopharm 10, injection solution) 90 min after SE onset. […] In the sham-SE group mice were treated with the same treatment scheme as the pilo-SE group but pilocarpine was replaced by 0.9% sodium chloride solution. The mortality in the pilo-SE model in mice is relatively high (overall about 50%) and can vary markedly between experimental groups/days. Therefore we had to start with a large number of mice for SE induction in order to reliably obtain a group size of 20-22 animals for the MEST.
Brain samples from pilocarpine treated mice and untreated mice were snap frozen and tissue was lysed in buffer containing 25 mM Tris-HCl, pH 8, 50 mM NaCl, 0.5% (w/v) sodium deoxycholate (DOC), and 0.5% (w/v) Triton X-100 and supplemented with complete protease inhibitor (Roche, Mannheim, Germany) and Phosphostop (NEB, USA). Disruption of cell lysates was performed by drawing up the cell suspension twenty times into a syringe with a small gauge needle (21 G) on ice. Protein concentrations in the lysates were determined by using the Pierce BCA Protein Assay kit (Thermo Scientific, Bonn, Germany) according to the manufacturer's instructions. […] Membranes were incubated with primary antibodies anti S6 1:1000, anti S6 Phospho Serin (240/244) 1:1000, anti S6 Phospho Serin (235/236) 1:2000 (NEB) and anti-Actin 1:100 (Sigma-Aldrich) for 1 h in 2% milk in PBST at room temperature (RT) and washed three times for 10 min in PBS-T. Secondary antibodies anti-rabbit-HRP 1:1000 (Dako, Hamburg, Germany) were incubated for 1 h in 2% milk in PBST at RT and washed three times for 10 min in PBST. Proteins were detected by enhanced chemiluminescence using SuperSignal West Femto Chemiluminescent Substrate (Thermo Scientific) and the ChemiDoc system (Bio-Rad, Munich, Germany) with QuantityOne software (Bio-Rad) according to the manufacturer's protocol. Relative protein expressions were quantified densitometrically with QuantityOne (Bio-Rad) software and calculated by normalization to the reference signals of actin with GraphPad Prism software (GraphPad, San Diego, CA, USA).
Pilocarpine pre-treated and naïve mice were treated with a single oral dose of Cpd. 3 (40 mg/kg), Cpd. 8 (25 mg/kg), everolimus (5 mg/kg) or vehicle. 5 mice per group were utilized and sacrificed after 3 hours.

[2] = system: female NMRI mice, nonepileptic (sham-SE) and epileptic (pilo-SE); experiment: Maximal electroshock seizure threshold test (MEST); type: in vivo, mouse
Method: A total of 166 adult female NMRI mice were used obtained from Charles River (Sulzfeld, Germany) at a weight range of 21-25 g (mice). Animals were kept under the following conditions: Housing: Animals were housed in groups of max. 8 mice under controlled conditions (temperature: 22±1° C.; humidity: 50% 60%/), under a 12-h light-dark cycle (lights on at 6:00 a.m.). Feeding: Standard laboratory chow (Altromin 1324 standard diet, Altromin Spezialfutter GmbH, Lage, Germany) was provided ad libitum. Drinking water: Tap water was provided ad libitum.
The MEST determines a population seizure threshold in groups of ˜20 animals and not the threshold for an individual animal. In the present study, the MEST was determined by a staircase procedure as previously described. A stimulator (BMT Medizintechnik, Berlin, Germany) that delivered a constant current (adjustable from 1-200 mA regardless of the impedance of the animal) with sinusoidal pulses (50/sec) for 0.2 sec was used.
Current administration was performed via bilateral transcorneal stimulation (using copper electrodes). Before transcorneal stimulation, a drop of tetracaine solution (2%) was administered to the eyes of the mouse for local anesthesia. Two minutes later, the mouse was restrained by hand to press the copper electrodes on both corneas while the stimulus was applied by stepping on a foot pedal switch connected with the stimulator. Electrodes were covered with soft leather and soaked with saline before each current application. […] The first stimulation was started with a current near to the control threshold.
3 (HCl): 40/100 mg in 10 ml (Suspension; 5% PEG 400 and 2% Tween 80, HPBCD (10%6)) • Cpd. 8 (HCl): 12.5/25 mg in 10 ml (5% PEG 400 and 2% Tween 80, HPBCD (10%))
Statistical analysis were calculated using Student's t-test. All tests were used two-sided; a P<0.05 was considered significant.
We performed no special tests for the determination of adverse effects. Mice were observed about 30 min after injection in their home cages for obvious sedation or reduction of wellbeing. Five minutes before electrical stimulation mice were again observed in their home cages and two minutes before stimulation during handling procedure for treatment with local anaesthesia. Every obvious variation from normal behavior was noted. Only phenobarbital induced noticeable sedation which lasted for more than 60 min. All other test drugs (including vehicle solutions) were tolerated without any obvious adverse effects.

[3] = system: STHdh^Q7/Q7 and STHdh^Q111/Q111 cells; experiment: PrestoBlue assay (cell viability/metabolic activity); type: cell-based, mouse; conditions: for metabolic activity (PrestoBlue) at 72 hours: 1230 nM, STHdh^Q111/Q111; for mitochondrial activity: at lower concentration
Method: Cell viability/metabolic activity was detected using the PrestoBlue viability reagent (Invitrogen, USA) according to the manufacturer's instructions. […] 3 (130 nM, 1230 nM), Cpd. […] Non-toxic concentrations determined were transferred to primary neurons used later on in this study. […] At lower concentration of Cpd. 3 and Cpd. […] 8 in STHdh^Q111/Q111. […] Wild type cells are less sensitive to mTOR inhibition and 2.

[4] = epileptic (pilocarpine pre-treated) mice
[5] = 12.5 mg/kg Cpd. 8 p.o., pretreatment 3 h
[6] = 25 mg/kg Cpd. 8 p.o., pretreatment 1 h
[7] = 25 mg/kg Cpd. 8 p.o., pretreatment 3 h
[8] = 25 mg/kg Cpd. 8 p.o., pretreatment 24 h
[9] = 40 mg/kg Cpd. 3 p.o., pretreatment 1 h
[10] = 40 mg/kg Cpd. 3 p.o., pretreatment 3 h
[11] = 100 mg/kg Cpd. 3 p.o., pretreatment 3 h

C[C@H]1COCCN1c1nc(-c2cnc(N)cc2C(F)F)nc(N2CCOCC2)n1 [Compound 8, (S)-4-(difluoromethyl)-5-(4-(3-methylmorpholino)-6-morpholino-1,3,5-triazin-2-yl)pyridin-2-amine]
decrease of S6 phosphorylation (S235/236) versus control [1, 4]: 2.8 fold
decrease of S6 phosphorylation (S235/236) versus control ([1]; naïve mice): 10.9 fold
Threshold difference between nonepileptic and epileptic [2, 5]: −1%
Threshold difference between vehicle and drug threshold, epileptic [2, 5]: −1%
Threshold difference between vehicle and drug threshold, nonepileptic [2, 5]: 8%
Threshold difference between nonepileptic and epileptic [2, 6]: −14%
Threshold difference between vehicle and drug threshold, epileptic [2, 6]: −9%
Threshold difference between nonepileptic and epileptic [2, 7]: −22%
Threshold difference between vehicle and drug threshold, epileptic [2, 7]: 6%
Threshold difference between vehicle and drug threshold, nonepileptic [2, 7]: 30%
Threshold difference between nonepileptic and epileptic [2, 8]: 5%
Threshold difference between vehicle and drug threshold, epileptic [2, 8]: −2%
decrease of the CC50 ([2]; Cpd. 8, epileptic mice, pretreatment time reduced to 1 h): 9%
metabolic activity (PrestoBlue) at 72 hours [3]: not significantly
mitochondrial activity [3]: slight increase in mitochondrial activity

Nc1cc(C(F)F)c(-c2nc(N3C4CCC3COC4)nc(N3C4CCC3COC4)n2)cn1 [Compound 3, 5-(4-(3-oxa-8-azabicyclo[3.2.1]octan-8-yl)-6-(3-oxa-8-azabicyclo[3.2.1]octan-8-yl)-1,3,5-triazin-2-yl)-4-(difluoromethyl)pyridin-2-amine]
decrease of S6 phosphorylation (S235/236) versus control [1, 4]: 4.3 fold
S6 phosphorylation / mTOR signaling in brain (FIG. 3B) ([1]; epileptic/pilocarpine pre-treated and naïve mice, single oral dose): significantly inhibited S6 phosphorylation in brain
decrease of S6 phosphorylation (S235/236) versus control ([1]; naïve mice): 4.6 fold
CC50 Pilo-SE (epileptic) [2, 9]: 17.99 ± 1.39 mA
CC50 Sham-SE (nonepileptic) [2, 9]: 15.14 ± 1.06 mA
Threshold difference between nonepileptic and epileptic [2, 9]: 19%
CC50 Pilo-SE (epileptic) [2, 10]: 18.20 ± 1.35 mA
CC50 Sham-SE (nonepileptic) [2, 10]: 17.49 ± 1.20 mA
Threshold difference between nonepileptic and epileptic [2, 10]: 4%
Threshold difference between vehicle and drug threshold, nonepileptic [2, 10]: 6%
CC50 Pilo-SE (epileptic) [2, 11]: 20.85 ± 1.38 mA
CC50 Sham-SE (nonepileptic) [2, 11]: 16.72 ± 1.72 mA
Threshold difference between nonepileptic and epileptic [2, 11]: 25%
Threshold difference between vehicle and drug threshold, epileptic [2, 11]: 9%
Threshold difference between vehicle and drug threshold, nonepileptic [2, 11]: 2%
anticonvulsant effect (overall) ([2]; parameters tested in this study): slight but inconsistent anticonvulsant effect
metabolic activity (PrestoBlue) at 72 hours [3]: slight inhibition; also recorded: decreased metabolic activity
mitochondrial activity [3]: slight increase in mitochondrial activity
